Where two headings read alike, the source gives them in different places.
Experiments:
[1] = biological target: human recombinant 5-HT2A receptor (Homo sapiens (Human), UniProt P28223); assay: 5-HT2A receptor binding inhibition test ([3H]-Ketanserin); conditions: Jump-In HEK cell membrane
Experimental: Test Example 1: 5-HT2A Receptor Binding Inhibition Test
(§1) (Each Experimental Condition)
Cell membrane: Jump-In HEK cell membrane (expressing human recombinant 5-HT2A receptor)
(§2) Assay buffer: Tris-HCl 50 mmol/L (pH 7.4) containing NaCl 120 mmol/L, MgCl2.6H2O 1 mmol/L, KCl 5 mmol/L, 0.1% BSA, and CaCl2 2 mmol/L
Radioactive ligand: [^3H]-Ketanserin around Kd value calculated by the following method
(§3) Non-specific ligand: Serotonin HCl
(§4) The Kd value was calculated when the lot of cell membrane was changed. In advance, 0.5 μL of a 1 mmol/L compound for non-specific binding calculation dissolved in DMSO or DMSO was dispensed into a microplate, and the cell membrane was diluted with an Assay buffer. The radioactive ligand solution was serially diluted and the count was confirmed with a liquid scintillator. Assay buffer containing diluted cell membrane was dispensed into a microplate at 50 μL/well. Then, the radioactive ligand solution was dispensed into a microplate at 50 μL/well, and the plate was sealed. It was allowed to stand at room temperature (25° C.) for 1.5 hours. During this period, 50 mmol/L Tris-HCl (pH 7.4) was dispensed into a GF/B UniFilter plate at 50 μL/well and allowed to stand at 4° C. for 1 hour or longer. After that, filtration was performed with Cell harvester (PerkinElmer). The radioactive ligand solution was dispensed into an empty well of the GF/B UniFilter plate at 10 μL/well. After the GF/B UniFilter plate was dried at room temperature, MicroScinti 20 was dispensed into the GF/B UniFilter plate at 50 μL/well, and the plate was sealed. The GF/B UniFilter plate was allowed to stand overnight at room temperature. The radioactivity of [^3H]-Ketanserin bound to the 5-HT2A receptor was measured using Microbeta2 (PerkinElmer) at a measurement time of 1 min/well. The Saturation curve was drawn from the measured value, and the Kd value was calculated from the slope of the Scatchard Plot.
(§5) (Binding Test of the Compound According to the Present Invention)
(§6) In advance, 0.5 μL of the compound solution dissolved in DMSO was dispensed into a microplate, and the cell membrane and the hot ligand were diluted with Assay buffer, respectively. Then, the Assay buffer containing the diluted cell membrane was dispensed into a microplate at 50 μL/well. Then, the radioactive ligand solution was dispensed into a microplate at 50 μL/well, and the plate was sealed. Then, it was allowed to stand at room temperature (25° C.) for 1.5 hours. During this period, 50 mmol/L Tris-HCl (pH 7.4) was dispensed into a GF/B UniFilter plate at 50 μL/well and allowed to stand at 4° C. for 1 hour or longer. After that, filtration was performed with Cell harvester (PerkinElmer). After the GF/B UniFilter plate was dried at room temperature, MicroScinti 20 was dispensed into the GF/B UniFilter plate at 50 μL/well, and the plate was sealed. The GF/B UniFilter plate was allowed to stand overnight at room temperature. The radioactivity of [^3H]-Ketanserin bound to the 5-HT2A receptor was measured using Microbeta2 (PerkinElmer) at a measurement time of 1 min/well. The non-specific binding was calculated from the radioactivity of [^3H]-Ketanserin in the presence of […] Serotonin HCl with the unlabeled ligand, and the total binding was calculated from the radioactivity of [^3H]-Ketanserin in the absence of the compound according to the present invention (Vehicle). Finally, the Ki value was calculated from the dose-response curve.
(§7) (The binding activity of the compound according to the present invention was calculated from the following binding inhibition rate (%).)
(§8) Inhibition rate (%)=[1−(c−a)/(b−a)]×100 • a; mean cpm of non-specific binding • b; mean cpm of total binding • c; cpm in the presence of the test compound

[2] = biological target: human recombinant 5-HT2C receptor (Homo sapiens (Human), UniProt P28335); assay: 5-HT2C receptor binding inhibition test ([3H]-Mesulergine); conditions: Jump-In HEK cell membrane, [3H]-Mesulergine
human recombinant 5-HT2C receptor, sequence (P28335 33-458): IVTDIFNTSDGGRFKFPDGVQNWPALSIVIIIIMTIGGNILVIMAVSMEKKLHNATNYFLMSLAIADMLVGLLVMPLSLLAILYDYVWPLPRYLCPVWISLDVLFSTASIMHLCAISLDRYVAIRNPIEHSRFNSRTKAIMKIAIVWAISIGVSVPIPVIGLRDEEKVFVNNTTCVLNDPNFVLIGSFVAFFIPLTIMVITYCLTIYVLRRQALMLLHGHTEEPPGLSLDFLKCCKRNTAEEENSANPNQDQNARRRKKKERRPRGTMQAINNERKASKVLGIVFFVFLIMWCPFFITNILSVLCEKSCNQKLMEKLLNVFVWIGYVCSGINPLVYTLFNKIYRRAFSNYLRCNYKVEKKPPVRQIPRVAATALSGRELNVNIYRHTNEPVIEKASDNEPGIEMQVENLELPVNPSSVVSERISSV
Experimental: as §1
Cell membrane: Jump-In HEK cell membrane (expressing human recombinant 5-HT2C receptor)
as §2
Radioactive ligand: [^3H]-Mesulergine around Kd value calculated by the following method
as §3
as §4, with “[…]” for “4°”, “The radioactivity of [^3H]-Ketanserin bound to the 5-HT2A receptor was measured using Microbeta2 (PerkinElmer) at a measurement time of 1 min/well.” left out
as §5
as §6, with “37° C.” for “room temperature (25° C.)”, “2” for “1.5”, “The radioactivity of [^3H]-Ketanserin bound to the 5-HT2A receptor was measured using Microbeta2 (PerkinElmer) at a measurement time of 1 min/well.” left out, “[^3H]-Mesulergine” for “[^3H]-Ketanserin”
as §7, §8

[3] = read-out: human serotonin 5-HT2A receptor binding activity, Ki value
[4] = read-out: human serotonin 5-HT2C receptor binding inhibitory activity, Ki value

human recombinant 5-HT2A receptor, sequence (P28223 whole entry): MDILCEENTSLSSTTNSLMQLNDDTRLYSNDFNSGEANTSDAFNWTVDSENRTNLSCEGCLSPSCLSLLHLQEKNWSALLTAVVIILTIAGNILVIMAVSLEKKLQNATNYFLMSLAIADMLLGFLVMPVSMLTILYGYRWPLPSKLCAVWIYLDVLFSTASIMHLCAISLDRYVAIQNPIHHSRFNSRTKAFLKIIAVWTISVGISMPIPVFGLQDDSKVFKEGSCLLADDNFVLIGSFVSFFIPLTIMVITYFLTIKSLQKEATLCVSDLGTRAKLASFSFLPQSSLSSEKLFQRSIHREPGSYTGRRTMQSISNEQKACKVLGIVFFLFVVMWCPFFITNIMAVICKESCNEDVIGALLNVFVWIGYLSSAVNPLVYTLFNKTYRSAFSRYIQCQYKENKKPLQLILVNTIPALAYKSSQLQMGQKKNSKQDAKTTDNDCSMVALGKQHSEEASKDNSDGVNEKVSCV

| Ki ([1]; read-out: h-5-HT2A Ki) [nM] | Ki ([2]; read-out: h-5-HT2C Ki) [nM] | SMILES | Ki [1, 3] [nM] | Ki [2, 4] [nM] |
| --- | --- | --- | --- | --- |
| – | – | CC(C)COc1ccc(CN(Cc2ccn(C)n2)C(=O)NC2CCCN(C)CC2)cc1 (racemic) [Compound I-004] | 4.51 | 11.5 |
| 10 to 100 | 10 to 100 | CC(C)COc1ccc(CN(Cc2ccn(C)n2)C(=O)N[C@@H]2CCNC[C@H]2F)cc1 (racemic) [Compound I-018] | – | – |
| < 10 | < 10 | CC(C)COc1ccc(CN(Cc2ccc(F)cn2)C(=O)NC2CCN(C)CC23CC3)cc1 (racemic) [Compound I-044] | – | – |
| < 10 | < 10 | CC(C)COc1ccc(CN(Cc2ccn(C)n2)C(=O)NC2CCN(C)CC23CC3)cc1 (racemic) [Compound I-045] | – | – |
| – | – | CC(C)COc1ccc(CN(Cc2ccc(F)cn2)C(=O)N[C@H]2CCNC[C@H]2F)cc1 (single isomer, unassigned) [Compound I-006] | 0.968 | 2.47 |
| 10 to 100 | 10 to 100 | CC(C)COc1ccc(CN(Cc2ccc(F)cn2)C(=O)N[C@@H]2CCNC[C@@H]2F)cc1 (single isomer, unassigned) [Compound I-022] | – | – |
| 10 to 100 | 10 to 100 | CC(C)COc1ccc(CN(Cc2ccn(C)n2)C(=O)NC2C3CCC2CN(C)C3)cc1 (single isomer, unassigned) [Compound I-075] | – | – |
| < 10 | 10 to 100 | CC(C)COc1ccc(CN(Cc2ccsc2)C(=O)NC2CCN(C)CC2)cc1 [Compound I-002] | – | – |
| – | – | CN1CCC(NC(=O)N(Cc2ccc(Oc3ccccc3)cc2)Cc2ccn(C)n2)CC1 [Compound I-003] | 9.93 | 8.39 |
| < 10 | 10 to 100 | Cc1cc(CN(Cc2ccc(OCC(C)C)cc2)C(=O)NC2CCN(C)CC2)nn1C [Compound I-005] | – | – |
| < 10 | 10 to 100 | CC(C)COc1ccc(CN(Cc2ccccn2)C(=O)NC2CCN(C)CC2)cc1 [Compound I-007] | – | – |
| < 10 | < 10 | Cc1ccc(CN(Cc2ccc(OCC(C)C)cc2)C(=O)NC2CCN(C)CC2)s1 [Compound I-008] | – | – |
| < 10 | 100 to 5000 | CC(C)COc1ccc(CN(Cc2cccn2C)C(=O)NC2CCN(C)CC2)cc1 [Compound I-009] | – | – |
| 10 to 100 | 100 to 5000 | COc1ccc(CN(Cc2ccn(C)n2)C(=O)NC2CCN(C)CC2)cc1C [Compound I-010] | – | – |
| 100 to 5000 | 100 to 5000 | CN1CCC(NC(=O)N(Cc2ccc(OCCO)cc2)Cc2ccn(C)n2)CC1 [Compound I-011] | – | – |
| – | – | CC(C)COc1ccc(CN(Cc2ccn(C)n2)C(=O)CC2CCN(C)CC2)cc1 [Compound I-012] | 6.02 | 33 |

| Ki ([1]; read-out: h-5-HT2A Ki) [nM] | Ki ([2]; read-out: h-5-HT2C Ki) [nM] | SMILES | Ki [1, 3] [nM] | Ki [2, 4] [nM] |
| --- | --- | --- | --- | --- |
| 10 to 100 | 10 to 100 | COc1ccc(CN(Cc2ccn(C)n2)C(=O)NC2CCN(C)CC2)c(F)c1 [Compound I-013] | – | – |
| < 10 | 10 to 100 | COc1ccc(CN(Cc2ccn(C)n2)C(=O)NC2CCN(C)CC2)cc1F [Compound I-014] | – | – |
| – | – | CN1CCC(NC(=O)N(Cc2ccc3c(c2)CCO3)Cc2ccn(C)n2)CC1 [Compound I-015] | 45.5 | – |
| < 10 | < 10 | CC(C)COc1ccc(CN(Cc2ccc(F)cn2)C(=O)NC2CCNCC2)cc1 [Compound I-017] | – | – |
| 10 to 100 | 100 to 5000 | CC(C)COc1ccc(CN(Cc2ccncn2)C(=O)NC2CCN(C)CC2)cc1 [Compound I-019] | – | – |
| 10 to 100 | 10 to 100 | CC(C)COc1ccc(CN(Cc2cnccn2)C(=O)NC2CCN(C)CC2)cc1 [Compound I-020] | – | – |
| < 10 | < 10 | CCCOc1ccc(CN(Cc2ccc(F)cn2)C(=O)NC2CCN(C)CC2)cc1 [Compound I-021] | – | – |
| < 10 | 10 to 100 | Cc1cccnc1CN(Cc1ccc(OCC(C)C)cc1)C(=O)NC1CCN(C)CC1 [Compound I-023] | – | – |
| < 10 | < 10 | CC(C)COc1ccc(CN(Cc2ccco2)C(=O)NC2CCN(C)CC2)cc1 [Compound I-024] | – | – |
| 10 to 100 | – | CC(C)COc1ccc(CN(Cc2ccncc2)C(=O)NC2CCN(C)CC2)cc1 [Compound I-052] | – | – |
| 100 to 5000 | – | CC(C)COc1ccc(CN(Cc2ccnn2C)C(=O)NC2CCN(C)CC2)cc1 [Compound I-053] | – | – |
| 10 to 100 | – | CC(C)COc1ccc(CN(Cc2cc(-c3ccccc3)n(C)n2)C(=O)NC2CCN(C)CC2)cc1 [Compound I-055] | – | – |
| 10 to 100 | – | CC(C)COc1ccc(CN(Cc2cc(C(F)(F)F)ccn2)C(=O)NC2CCN(C)CC2)cc1 [Compound I-056] | – | – |
| 100 to 5000 | – | CC(C)COc1ccc(CN(Cc2cccnc2)C(=O)NC2CCN(C)CC2)cc1 [Compound I-057] | – | – |
| 100 to 5000 | – | CC(C)COc1ccc(CN(Cc2ccn(C)n2)C(=O)NC2CCN(C3COC3)CC2)cc1 [Compound I-071] | – | – |
| 100 to 5000 | – | CNC(=O)CN1CCC(NC(=O)N(Cc2ccc(OCC(C)C)cc2)Cc2ccn(C)n2)CC1 [Compound I-072] | – | – |

| SMILES | Ki ([1]; read-out: h-5-HT2A Ki) [nM] | Ki ([2]; read-out: h-5-HT2C Ki) [nM] | Ki [1, 3] [nM] | Ki [2, 4] [nM] |
| --- | --- | --- | --- | --- |
| CC(C)COc1ccc(CN(Cc2ccn(C)n2)C(=O)NC2CCN(C)C2)cc1 (racemic) [Compound I-054] | < 10 | – | – | – |
| CC(C)COc1ccc(CN(Cc2ccn(C)n2)C(=O)NC2CCN(C)C3(CCC3)C2)cc1 (racemic) [Compound I-067] | < 10 | < 10 | – | – |
| CCCCOc1ccc(CN(Cc2coc(C)n2)C(=O)C(F)C2CCN(C)CC2)cc1F (racemic) [Compound I-124] | < 10 | < 10 | – | – |
| CC(C)COc1ccc(CN(Cc2ccn(C)n2)C(=O)N[C@@H]2C[C@H]3CC[C@@H](C2)N3C)cc1 [Compound I-062] | 10 to 100 | – | – | – |
| CC(C)COc1ccc(CN(Cc2ccn(C)n2)C(=O)N[C@H]2C[C@H]3CCC[C@@H](C2)N3C)cc1 [Compound I-073] | 100 to 5000 | – | – | – |
| CC(C)COc1ccc(CN(Cc2ccn(C)n2)C(=O)N[C@@H]2C[C@H]3CCC[C@@H](C2)N3C)cc1 [Compound I-074] | < 10 | – | – | – |

— patent US20240083872A1, “CYCLIC AMINE DERIVATIVES HAVING SEROTONIN RECEPTOR BINDING ACTIVITY” (Shionogi & Co., Ltd., priority 2020, published 2024)
